From PMC9250534, “Synthesis and direct assay of large macrocycle diversities by combinatorial late-stage modification at picomole scale” (Nature Communications, 2022)

Each molecule was assayed against MDM2 (Homo sapiens, UniProt Q00987) (assay: MDM2 binding screen of Libraries 3 and 4: displacement of fluorescent probe F-M8 at 750 nM macrocycle). Conditions: Panel b, Library 3: 63 scaffolds combinatorially acylated with 15 carboxylic acids at 30 picomole scale; displacement of fluorescent peptide probe; macrocycle 750 nM.
Method in brief: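 Cyclic peptide scaffolds were acylated in DMSO with carboxylic acids (20 equiv.), HBTU and DABCO for 6 h at room temperature. Reactions were quenched overnight in 100 mM Tris-Cl pH 7.4, 0.01% Tween20. The fluorescein conjugate was also competed with nutlin-3a.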

MDM2, sequence (Q00987 whole entry): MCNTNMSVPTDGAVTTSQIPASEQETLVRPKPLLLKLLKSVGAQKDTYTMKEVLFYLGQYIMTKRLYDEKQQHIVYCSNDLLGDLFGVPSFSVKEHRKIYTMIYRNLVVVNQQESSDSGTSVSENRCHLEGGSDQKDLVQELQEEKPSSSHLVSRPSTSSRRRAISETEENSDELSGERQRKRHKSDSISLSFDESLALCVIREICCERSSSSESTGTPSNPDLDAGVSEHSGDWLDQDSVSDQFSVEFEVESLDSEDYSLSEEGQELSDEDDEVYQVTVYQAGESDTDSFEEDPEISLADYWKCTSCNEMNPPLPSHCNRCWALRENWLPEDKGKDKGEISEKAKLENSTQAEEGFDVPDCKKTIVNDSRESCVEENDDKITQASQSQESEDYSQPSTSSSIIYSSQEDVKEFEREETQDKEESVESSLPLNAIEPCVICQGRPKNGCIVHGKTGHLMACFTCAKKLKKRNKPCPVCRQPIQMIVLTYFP

In order of rising “fraction of fluorescent probe displaced” value:
1. O=C1CCSSCCNC(=O)C(Cc2ccc3ccccc3c2)NC(=O)CN(CCNC(=O)C2CC2c2ccccc2)C(=O)C2(CC2)CN1 (centres unmarked) [X-Amcp-N-Aeg-2-Nal + Acid 105]  -0.041
2. O=C1CCSSCCNC(=O)[C@H](Cc2ccc3ccccc3c2)NC(=O)CN(CCNC(=O)c2ccc(Cl)s2)C(=O)C2(CC2)CN1 [X-Amcp-N-Aeg-2-Nal + Acid 14]  -0.032
3. CN1C(=O)[C@H](CNC(=O)c2ccc(Cl)s2)NC(=O)C2(CC2)CNC(=O)CCSSCCNC(=O)[C@@H]1Cc1c[nH]c2ccccc12 [X-Amcp-Dap-NMe-Trp + Acid 14]  -0.025
4. O=C1CCSSCCNC(=O)[C@H](Cc2c[nH]c3cc(Cl)ccc23)NC(=O)CN(CCNC(=O)c2ccc(Cl)cc2)C(=O)C2(CC2)CN1 [X-Amcp-N-Aeg-Cl-Trp + Acid 25]  -0.025
5. O=C(/C=C/c1ccc2ccccc2c1)NCCN1CC(=O)N[C@@H](Cc2c[nH]c3cc(Cl)ccc23)C(=O)NCCSSCCC(=O)NCC2(CC2)C1=O [X-Amcp-N-Aeg-Cl-Trp + Acid 112]  -0.019
6. CN1C(=O)[C@H](CNC(=O)c2cccc(Oc3ccccc3)c2)NC(=O)C2(CC2)CNC(=O)CCSSCCNC(=O)[C@@H]1Cc1c[nH]c2ccccc12 [X-Amcp-Dap-NMe-Trp + Acid 111]  -0.012
7. O=C1CCSSCCNC(=O)[C@H](Cc2cccc3ccccc23)NC(=O)CN(CCNC(=O)c2ccc(Cl)cc2)C(=O)C2(CC2)CN1 [X-Amcp-N-Aeg-1-NaI + Acid 25]  -0.012
8. O=C(CCS(=O)(=O)c1ccccc1)NC[C@@H]1NC(=O)C2(CC2)CNC(=O)CCSSCCNC(=O)[C@H](Cc2c[nH]c3ccccc23)NC1=O [X-Amcp-Dap-Trp + Acid 114]  -0.00533
9. O=C1CCSSCCNC(=O)[C@H](Cc2c[nH]c3cc(Cl)ccc23)NC(=O)CN(CCNC(=O)c2cccc(Oc3ccccc3)c2)C(=O)C2(CC2)CN1 [X-Amcp-N-Aeg-Cl-Trp + Acid 111]  -0.00533
10. O=C(CCS(=O)(=O)c1ccccc1)NCCN1CC(=O)N[C@@H](Cc2c[nH]c3cc(Cl)ccc23)C(=O)NCCSSCCC(=O)NCC2(CC2)C1=O [X-Amcp-N-Aeg-Cl-Trp + Acid 114]  -0.00533
11. CN1C(=O)[C@H](CNC(=O)c2ccc(Cl)cc2)NC(=O)C2(CC2)CNC(=O)CCSSCCNC(=O)[C@@H]1Cc1c[nH]c2ccccc12 [X-Amcp-Dap-NMe-Trp + Acid 25]  0.00133
12. O=C(CCS(=O)(=O)c1ccccc1)NCCN1CC(=O)N[C@@H](Cc2cccc3ccccc23)C(=O)NCCSSCCC(=O)NCC2(CC2)C1=O [X-Amcp-N-Aeg-1-NaI + Acid 114]  0.00133
13. O=C1CCSSCCNC(=O)[C@H](Cc2c[nH]c3cc(Cl)ccc23)NC(=O)CN(CCNC(=O)C2COc3ccccc3O2)C(=O)C2(CC2)CN1 (some centres unmarked) [X-Amcp-N-Aeg-Cl-Trp + Acid 115]  0.00133
14. CC(Oc1cccc(Cl)c1)C(=O)NCCN1CC(=O)N[C@H](Cc2c[nH]c3ccccc23)C(=O)NCCSSCCC(=O)NCC2(CC2)C1=O (stereo partly drawn) [X-Amcp-N-Aeg-D-Trp + Acid 113]  0.00133
15. O=C1CCSSCCNC(=O)[C@H](Cc2c[nH]c3ccccc23)NC(=O)[C@H](CNC(=O)c2ccc(Cl)s2)NC(=O)C2(CC2)CN1 [X-Amcp-Dap-Trp + Acid 14]  0.008
16. O=C(/C=C/c1ccc2ccccc2c1)NCCN1CC(=O)N[C@@H](Cc2cccc3ccccc23)C(=O)NCCSSCCC(=O)NCC2(CC2)C1=O [X-Amcp-N-Aeg-1-NaI + Acid 112]  0.008
17. CC(Oc1cccc(Cl)c1)C(=O)NCCN1CC(=O)N[C@@H](Cc2ccc3ccccc3c2)C(=O)NCCSSCCC(=O)NCC2(CC2)C1=O (some centres unmarked) [X-Amcp-N-Aeg-2-Nal + Acid 113]  0.008
18. O=C1CCSSCCNC(=O)[C@@H](Cc2c[nH]c3ccccc23)NC(=O)CN(CCNC(=O)c2cccc(Oc3ccccc3)c2)C(=O)C2(CC2)CN1 [X-Amcp-N-Aeg-D-Trp + Acid 111]  0.008
19. O=C(/C=C/c1ccc2ccccc2c1)NCCN1CC(=O)N[C@H](Cc2c[nH]c3ccccc23)C(=O)NCCSSCCC(=O)NCC2(CC2)C1=O [X-Amcp-N-Aeg-D-Trp + Acid 112]  0.008
20. O=C1CCSSCCNC(=O)[C@H](Cc2cccc3ccccc23)NC(=O)CN(CCNC(=O)c2ccc3ccccc3c2)C(=O)C2(CC2)CN1 [X-Amcp-N-Aeg-1-NaI + Acid 107]  0.011
21. CN1C(=O)[C@H](CNC(=O)/C=C/c2ccc(OCc3ccccc3)cc2)NC(=O)C2(CC2)CNC(=O)CCSSCCNC(=O)[C@@H]1Cc1c[nH]c2ccccc12 [X-Amcp-Dap-NMe-Trp + Acid 110]  0.015
22. O=C(/C=C/c1ccc(OCc2ccccc2)cc1)NC[C@@H]1NC(=O)C2(CC2)CNC(=O)CCSSCCNC(=O)[C@H](Cc2c[nH]c3ccccc23)NC1=O [X-Amcp-Dap-Trp + Acid 110]  0.015
23. O=C(/C=C/c1ccc(OCc2ccccc2)cc1)NCCN1CC(=O)N[C@@H](Cc2c[nH]c3cc(Cl)ccc23)C(=O)NCCSSCCC(=O)NCC2(CC2)C1=O [X-Amcp-N-Aeg-Cl-Trp + Acid 110]  0.015
24. O=C(/C=C/c1ccc(OCc2ccccc2)cc1)NCCN1CC(=O)N[C@H](Cc2c[nH]c3ccccc23)C(=O)NCCSSCCC(=O)NCC2(CC2)C1=O [X-Amcp-N-Aeg-D-Trp + Acid 110]  0.015
25. O=C1CCSSCCNC(=O)[C@H](Cc2ccc3ccccc3c2)NC(=O)CN(CCNC(=O)c2ccc3ccccc3c2)C(=O)C2(CC2)CN1 [X-Amcp-N-Aeg-2-Nal + Acid 107]  0.018
26. O=C(/C=C/c1ccc(OCc2ccccc2)cc1)NCCN1CC(=O)N[C@@H](Cc2ccc3ccccc3c2)C(=O)NCCSSCCC(=O)NCC2(CC2)C1=O [X-Amcp-N-Aeg-2-Nal + Acid 110]  0.021
27. CC(Oc1cccc(Cl)c1)C(=O)NCCN1CC(=O)N[C@@H](Cc2cccc3ccccc23)C(=O)NCCSSCCC(=O)NCC2(CC2)C1=O (some centres unmarked) [X-Amcp-N-Aeg-1-NaI + Acid 113]  0.028
28. O=C(CCS(=O)(=O)c1ccccc1)NCCN1CC(=O)N[C@@H](Cc2ccc3ccccc3c2)C(=O)NCCSSCCC(=O)NCC2(CC2)C1=O [X-Amcp-N-Aeg-2-Nal + Acid 114]  0.028
29. O=C(/C=C/c1ccc(Cl)cc1)NCCN1CC(=O)N[C@@H](Cc2cccc3ccccc23)C(=O)NCCSSCCC(=O)NCC2(CC2)C1=O [X-Amcp-N-Aeg-1-NaI + Acid 108]  0.035
30. O=C(/C=C/c1ccc(Cl)cc1)NCCN1CC(=O)N[C@H](Cc2c[nH]c3ccccc23)C(=O)NCCSSCCC(=O)NCC2(CC2)C1=O [X-Amcp-N-Aeg-D-Trp + Acid 108]  0.035
31. O=C(/C=C/c1ccc(Cl)cc1)NCCN1CC(=O)N[C@@H](Cc2ccc3ccccc3c2)C(=O)NCCSSCCC(=O)NCC2(CC2)C1=O [X-Amcp-N-Aeg-2-Nal + Acid 108]  0.041
32. O=C1CCSSCCNC(=O)[C@H](Cc2c[nH]c3ccccc23)NC(=O)[C@H](CNC(=O)c2ccc(Cl)cc2)NC(=O)C2(CC2)CN1 [X-Amcp-Dap-Trp + Acid 25]  0.048
33. O=C1CCSSCCNC(=O)[C@@H](Cc2c[nH]c3ccccc23)NC(=O)CN(CCNC(=O)C2COc3ccccc3O2)C(=O)C2(CC2)CN1 (stereo partly drawn) [X-Amcp-N-Aeg-D-Trp + Acid 115]  0.048
34. CN1C(=O)[C@H](CNC(=O)CCS(=O)(=O)c2ccccc2)NC(=O)C2(CC2)CNC(=O)CCSSCCNC(=O)[C@@H]1Cc1c[nH]c2ccccc12 [X-Amcp-Dap-NMe-Trp + Acid 114]  0.055
35. O=C(CCS(=O)(=O)c1ccccc1)NCCN1CC(=O)N[C@H](Cc2c[nH]c3ccccc23)C(=O)NCCSSCCC(=O)NCC2(CC2)C1=O [X-Amcp-N-Aeg-D-Trp + Acid 114]  0.055
36. O=C1CCSSCCNC(=O)[C@H](Cc2c[nH]c3ccccc23)NC(=O)[C@H](CNC(=O)c2ccc3ccccc3c2)NC(=O)C2(CC2)CN1 [X-Amcp-Dap-Trp + Acid 107]  0.063
37. O=C(/C=C/c1ccc(Cl)cc1)NC[C@@H]1NC(=O)C2(CC2)CNC(=O)CCSSCCNC(=O)[C@H](Cc2c[nH]c3ccccc23)NC1=O [X-Amcp-Dap-Trp + Acid 108]  0.068

Same assay, conditions: Panel c, Library 4: best nine scaffolds and 15 additional carboxylic acids; displacement of fluorescent probe

In order of falling “fraction of fluorescent probe displaced” value:
1. O=C(/C=C/c1ccc(F)cc1)NC[C@@H]1NC(=O)C2(CC2)CNC(=O)CCSSCCNC(=O)[C@H](Cc2c[nH]c3ccccc23)NC1=O [X-Amcp-Dap-Trp + Acid 116]  0.077
2. CCCOc1ccc(/C=C/C(=O)NC[C@@H]2NC(=O)C3(CC3)CNC(=O)CCSSCCNC(=O)[C@H](Cc3c[nH]c4ccccc34)NC2=O)cc1 [X-Amcp-Dap-Trp + Acid 118]  0.069
3. O=C(/C=C/c1ccc(Cl)c(Cl)c1)NC[C@@H]1NC(=O)C2(CC2)CNC(=O)CCSSCCNC(=O)[C@H](Cc2c[nH]c3ccccc23)NC1=O [X-Amcp-Dap-Trp + Acid 119]  0.069
4. O=C(/C=C/c1cccc(Cl)c1)NC[C@@H]1NC(=O)C2(CC2)CNC(=O)CCSSCCNC(=O)[C@H](Cc2c[nH]c3ccccc23)NC1=O [X-Amcp-Dap-Trp + Acid 121]  0.052
5. O=C(/C=C/c1cccc(C(F)(F)F)c1)NC[C@@H]1NC(=O)C2(CC2)CNC(=O)CCSSCCNC(=O)[C@H](Cc2c[nH]c3ccccc23)NC1=O [X-Amcp-Dap-Trp + Acid 122]  0.052
6. CC(C)c1ccc(/C=C/C(=O)NC[C@@H]2NC(=O)C3(CC3)CNC(=O)CCSSCCNC(=O)[C@H](Cc3c[nH]c4ccccc34)NC2=O)cc1 [X-Amcp-Dap-Trp + Acid 127]  0.028
7. O=C1CCSSCCNC(=O)[C@H](Cc2c[nH]c3ccccc23)NC(=O)[C@H](CNC(=O)c2cnc3ccccc3n2)NC(=O)C2(CC2)CN1 [X-Amcp-Dap-Trp + Acid 130]  0.0035
